Where two headings read alike, the source gives them in different places.

In general, EC50 refers to the concentration needed to bring the measured effect to its halfway point.

In test [1] the test system is HCV genotype 1a (H77 strain) replicon in HUH-7 cells. Description: HCV replicon luciferase reporter assay, genotype 1a. The class given is cell-based. Particulars: Hepatitis C virus, Huh-7, 72 h, HCV genotype 1a replicon luciferase assay, 3 days incubation. The method in brief: (§1)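 Replicon inhibition for both genotypes was measured as Renilla luciferase signal (EnduRen, 7.5 μM final, 2 h) after 3-day, 37° C exposure of replicon-bearing HUH-7 cells in 4% FCS DMEM, 0.5% DMSO. The 1b construct carries S1179I; the 1a H77 construct carries P1496L and S2204I. Twenty-point, 3-fold dilutions were fitted four-parametrically for EC50, and CC50 was taken from multiplexed Cell Titer-Blue.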
(Replicon systems follow genome replication, usually without infectious particles.)

The subject of test [2] is HCV genotype 1b (Con1) replicon in HUH-7 cells. Description: HCV replicon luciferase reporter assay, genotype 1b. The test is classed as cell-based. Particulars: Hepatitis C virus, Huh-7, 72 h, HCV genotype 1b replicon luciferase assay, 3 days incubation. The method in brief:
as §1

Setting [3] is: range class, read-out: LE_1a (EC50, range).
The mark [4] stands for this setting: range class, read-out: LE_1b (EC50, range).

Take `COCCn1nc(O[C@@H]2C[C@H]3C(=O)N[C@]4(C(=O)NS(=O)(=O)C5(C)CC5)C[C@H]4/C=C\CC[C@@H](C)C[C@@H](C)[C@H](NC(=O)OC(C)(C)C)C(=O)N3C2)c2ccccc2c1=O` [Compound 1006, tert-butyl ((2R,6S,7R,9R,13aS,14aR,16aS,Z)-2-((3-(2-methoxyethyl)-4-oxo-3,4-dihydrophthalazin-1-yl)oxy)-7,9-dimethyl-14a-(((1-methylcyclopropyl)sulfonyl)carbamoyl)-5,16-dioxo-1,2,3,5,6,7,8,9,10,11,13a,14,14a,15,16,16a-hexadecahydrocyclopropa[e]pyrrolo[1,2-a][1,4]diazacyclopentadecin-6-yl)carbamate]: the EC50 in test [1] (setting [3]) and in test [2] (setting [4]) was 4.82 to 103 nM each time.

Turning to `COCCn1nc(O[C@@H]2C[C@H]3C(=O)N[C@]4(C(=O)NS(=O)(=O)C5CC5)C[C@H]4/C=C\CC[C@H](C)C[C@@H](C)[C@H](NC(=O)OC(C)(C)C)C(=O)N3C2)c2ccccc2c1=O` [Compound 1007, tert-butyl ((2R,6S,7R,9S,13aS,14aR,16aS,Z)-14a-((cyclopropylsulfonyl)carbamoyl)-2-((3-(2-methoxyethyl)-4-oxo-3,4-dihydrophthalazin-1-yl)oxy)-7,9-dimethyl-5,16-dioxo-1,2,3,5,6,7,8,9,10,11,13a,14,14a,15,16,16a-hexadecahydrocyclopropa[e]pyrrolo[1,2-a][1,4]diazacyclopentadecin-6-yl)carbamate], the EC50 in test [1] (setting [3]) was greater than 87.4 nM; in test [1] (read-out: LE_1a (EC50)), no less than 1000 nM; in test [2] (setting [4]), greater than 87.4 nM; in test [2] (read-out: LE_1b (EC50)), 438 nM.

On to `COCCn1nc(O[C@@H]2C[C@H]3C(=O)N[C@]4(C(=O)NS(=O)(=O)C5CC5)C[C@H]4/C=C\CC[C@@H](C)C[C@@H](C)[C@H](NC(=O)OC(C)(C)C)C(=O)N3C2)c2ccccc2c1=O` [Compound 1008, tert-butyl ((2R,6S,7R,9R,13aS,14aR,16aS,Z)-14a-((cyclopropylsulfonyl)carbamoyl)-2-((3-(2-methoxyethyl)-4-oxo-3,4-dihydrophthalazin-1-yl)oxy)-7,9-dimethyl-5,16-dioxo-1,2,3,5,6,7,8,9,10,11,13a,14,14a,15,16,16a-hexadecahydrocyclopropa[e]pyrrolo[1,2-a][1,4]diazacyclopentadecin-6-yl)carbamate], for which the EC50 in test [1] (setting [3]) and in test [2] (setting [4]) was 4.82 to 103 nM in each case.

Turning to `CC(C)n1nc(O[C@@H]2C[C@H]3C(=O)N[C@]4(C(=O)NS(=O)(=O)C5CC5)C[C@H]4/C=C\CC[C@H](C)C[C@@H](C)[C@H](NC(=O)OC(C)(C)C(F)(F)F)C(=O)N3C2)c2ccccc2c1=O` [Compound 1009, 1,1,1-trifluoro-2-methylpropan-2-yl((2R,6S,7R,9S,13aS,14aR,16aS,Z)-14a-((cyclopropylsulfonyl)carbamoyl)-2-((3-isopropyl-4-oxo-3,4-dihydrophthalazin-1-yl)oxy)-7,9-dimethyl-5,16-dioxo-1,2,3,5,6,7,8,9,10,11,13a,14,14a,15,16,16a-hexadecahydrocyclopropa[e]pyrrolo[1,2-a][1,4]diazacyclopentadecin-6-yl)carbamate], the EC50 in test [1] (setting [3]) and in test [2] (setting [4]) was greater than 87.4 nM throughout.

As to `CC(C)n1nc(O[C@@H]2C[C@H]3C(=O)N[C@]4(C(=O)NS(=O)(=O)C5CC5)C[C@H]4/C=C\CC[C@@H](C)C[C@@H](C)[C@H](NC(=O)OC(C)(C)C(F)(F)F)C(=O)N3C2)c2ccccc2c1=O` [Compound 1010, 1,1,1-trifluoro-2-methylpropan-2-yl((2R,6S,7R,9R,13aS,14aR,16aS,Z)-14a-((cyclopropylsulfonyl)carbamoyl)-2-((3-isopropyl-4-oxo-3,4-dihydrophthalazin-1-yl)oxy)-7,9-dimethyl-5,16-dioxo-1,2,3,5,6,7,8,9,10,11,13a,14,14a,15,16,16a-hexadecahydrocyclopropa[e]pyrrolo[1,2-a][1,4]diazacyclopentadecin-6-yl)carbamate], the EC50 in test [1] (setting [3]) and in test [2] (setting [4]) was 4.82 to 103 nM throughout.

Take `CC(C)n1nc(O[C@@H]2C[C@H]3C(=O)N[C@]4(C(=O)NS(=O)(=O)C5(C)CC5)C[C@H]4/C=C\CC[C@H](C)C[C@@H](C)[C@H](NC(=O)OC(C)(C)C(F)(F)F)C(=O)N3C2)c2ccccc2c1=O` [Compound 1011, 1,1,1-trifluoro-2-methylpropan-2-yl((2R,6S,7R,9S,13aS,14aR,16aS,Z)-2-((3-isopropyl-4-oxo-3,4-dihydrophthalazin-1-yl)oxy)-7,9-dimethyl-14a-(((1-methylcyclopropyl)sulfonyl)carbamoyl)-5,16-dioxo-1,2,3,5,6,7,8,9,10,11,13a,14,14a,15,16,16a-hexadecahydrocyclopropa[e]pyrrolo[1,2-a][1,4]diazacyclopentadecin-6-yl)carbamate]: the EC50 in test [1] (setting [3]) was greater than 87.4 nM; in test [1] (read-out: LE_1a (EC50)), no less than 1000 nM; in test [2] (setting [4]) it was greater than 87.4 nM; in test [2] (read-out: LE_1b (EC50)) it was 362 nM.

For the molecule `CC(C)n1nc(O[C@@H]2C[C@H]3C(=O)N[C@]4(C(=O)NS(=O)(=O)C5(C)CC5)C[C@H]4/C=C\CC[C@@H](C)C[C@@H](C)[C@H](NC(=O)OC(C)(C)C(F)(F)F)C(=O)N3C2)c2ccccc2c1=O` [Compound 1012, 1,1,1-trifluoro-2-methylpropan-2-yl((2R,6S,7R,9R,13aS,14aR,16aS,Z)-2-((3-isopropyl-4-oxo-3,4-dihydrophthalazin-1-yl)oxy)-7,9-dimethyl-14a-(((1-methylcyclopropyl)sulfonyl)carbamoyl)-5,16-dioxo-1,2,3,5,6,7,8,9,10,11,13a,14,14a,15,16,16a-hexadecahydrocyclopropa[e]pyrrolo[1,2-a][1,4]diazacyclopentadecin-6-yl)carbamate], the EC50 in test [1] (setting [3]) and in test [2] (setting [4]) was 4.82 to 103 nM each time.

Consider `COCCn1nc(O[C@@H]2C[C@H]3C(=O)N[C@]4(C(=O)NS(=O)(=O)C5(C)CC5)C[C@H]4/C=C\CC[C@@H](C)C[C@@H](C)[C@H](NC(=O)OC(C)(C)C(F)(F)F)C(=O)N3C2)c2ccccc2c1=O` [Compound 1014, 1,1,1-trifluoro-2-methylpropan-2-yl((2R,6S,7R,9R,13aS,14aR,16aS,Z)-2-((3-(2-methoxyethyl)-4-oxo-3,4-dihydrophthalazin-1-yl)oxy)-7,9-dimethyl-14a-(((1-methylcyclopropyl)sulfonyl)carbamoyl)-5,16-dioxo-1,2,3,5,6,7,8,9,10,11,13a,14,14a,15,16,16a-hexadecahydrocyclopropa[e]pyrrolo[1,2-a][1,4]diazacyclopentadecin-6-yl)carbamate], for which the concentration giving a half-maximal response (EC50) in test [1] (setting [3]) and in test [2] (setting [4]) was 4.82 to 103 nM throughout.

Regarding `CC(C)n1nc(O[C@@H]2C[C@H]3C(=O)N[C@]4(C(=O)NS(=O)(=O)C5(C)CC5)C[C@H]4/C=C\CC[C@H](C)C[C@@H](C)[C@H](NC(=O)OC(C)(C)C(C)(F)F)C(=O)N3C2)c2ccccc2c1=O` [Compound 1015, 3,3-difluoro-2-methylbutan-2-yl((2R,6S,7R,9S,13aS,14aR,16aS,Z)-2-((3-isopropyl-4-oxo-3,4-dihydrophthalazin-1-yl)oxy)-7,9-dimethyl-14a-(((1-methylcyclopropyl)sulfonyl)carbamoyl)-5,16-dioxo-1,2,3,5,6,7,8,9,10,11,13a,14,14a,15,16,16a-hexadecahydrocyclopropa[e]pyrrolo[1,2-a][1,4]diazacyclopentadecin-6-yl)carbamate], the EC50 in test [1] (setting [3]) and in test [2] (setting [4]) was greater than 87.4 nM in each case.

Turning to `CC(C)n1nc(O[C@@H]2C[C@H]3C(=O)N[C@]4(C(=O)NS(=O)(=O)C5(C)CC5)C[C@H]4/C=C\CC[C@@H](C)C[C@@H](C)[C@H](NC(=O)OC(C)(C)C(C)(F)F)C(=O)N3C2)c2ccccc2c1=O` [Compound 1016, 3,3-difluoro-2-methylbutan-2-yl((2R,6S,7R,9R,13aS,14aR,16aS,Z)-2-((3-isopropyl-4-oxo-3,4-dihydrophthalazin-1-yl)oxy)-7,9-dimethyl-14a-(((1-methylcyclopropyl)sulfonyl)carbamoyl)-5,16-dioxo-1,2,3,5,6,7,8,9,10,11,13a,14,14a,15,16,16a-hexadecahydrocyclopropa[e]pyrrolo[1,2-a][1,4]diazacyclopentadecin-6-yl)carbamate], the EC50 in test [1] (setting [3]) and in test [2] (setting [4]) was 4.82 to 103 nM in each case.

For `CC(C)n1nc(O[C@@H]2C[C@H]3C(=O)N[C@]4(C(=O)NS(=O)(=O)C5CC5)C[C@H]4/C=C\CC[C@H](C)C[C@@H](C)[C@H](NC(=O)OC(C)(C)C(C)(F)F)C(=O)N3C2)c2ccccc2c1=O` [Compound 1017, 3,3-difluoro-2-methylbutan-2-yl((2R,6S,7R,9S,13aS,14aR,16aS,Z)-14a-((cyclopropylsulfonyl)carbamoyl)-2-((3-isopropyl-4-oxo-3,4-dihydrophthalazin-1-yl)oxy)-7,9-dimethyl-5,16-dioxo-1,2,3,5,6,7,8,9,10,11,13a,14,14a,15,16,16a-hexadecahydrocyclopropa[e]pyrrolo[1,2-a][1,4]diazacyclopentadecin-6-yl)carbamate], the 50% effective concentration (EC50) in test [1] (setting [3]) and in test [2] (setting [4]) was greater than 87.4 nM throughout.

As for `CC(C)n1nc(O[C@@H]2C[C@H]3C(=O)N[C@]4(C(=O)NS(=O)(=O)C5CC5)C[C@H]4/C=C\CC[C@@H](C)C[C@@H](C)[C@H](NC(=O)OC(C)(C)C(C)(F)F)C(=O)N3C2)c2ccccc2c1=O` [Compound 1018, 3,3-difluoro-2-methylbutan-2-yl((2R,6S,7R,9R,13aS,14aR,16aS,Z)-14a-((cyclopropylsulfonyl)carbamoyl)-2-((3-isopropyl-4-oxo-3,4-dihydrophthalazin-1-yl)oxy)-7,9-dimethyl-5,16-dioxo-1,2,3,5,6,7,8,9,10,11,13a,14,14a,15,16,16a-hexadecahydrocyclopropa[e]pyrrolo[1,2-a][1,4]diazacyclopentadecin-6-yl)carbamate], the EC50 in test [1] (setting [3]) and in test [2] (setting [4]) was 4.82 to 103 nM each time.

These data come from patent US9499550B2 (BRISTOL-MYERS SQUIBB COMPANY, priority 2012, dated 2016).
